Starred links: 1 amine or outer side, 2 acyl side, 3 side chain; linkers in the order of their positions; H or OH if unused. Non-standard residues stand in square brackets, D forms with d. Residues, ends and D or L forms follow the SMILES beside them. Groups on a side chain read outwards from the residue. *: point of attachment. C20 diacid = O=C(O)CCCCCCCCCCCCCCCCCCC(=O)*; C18 diacid = O=C(O)CCCCCCCCCCCCCCCCC(=O)*; γGlu = O=C(O)[C@H](CCC(=O)[*:2])N[*:1]; αMeF = C[C@](N)(Cc1ccccc1)C(=O)O; PEG2 = NCCOCCOCCC(=O)O; AEEA = NCCOCCOCC(=O)O; Aib = CC(C)(N)C(=O)O
Molecular target: T1, human GLP-1 receptor (hGLP-1R) (Homo sapiens, UniProt P43220)
T1 construct: expressed in transfected cells; host or cells: CHO
T1 sequence (P43220 24-463): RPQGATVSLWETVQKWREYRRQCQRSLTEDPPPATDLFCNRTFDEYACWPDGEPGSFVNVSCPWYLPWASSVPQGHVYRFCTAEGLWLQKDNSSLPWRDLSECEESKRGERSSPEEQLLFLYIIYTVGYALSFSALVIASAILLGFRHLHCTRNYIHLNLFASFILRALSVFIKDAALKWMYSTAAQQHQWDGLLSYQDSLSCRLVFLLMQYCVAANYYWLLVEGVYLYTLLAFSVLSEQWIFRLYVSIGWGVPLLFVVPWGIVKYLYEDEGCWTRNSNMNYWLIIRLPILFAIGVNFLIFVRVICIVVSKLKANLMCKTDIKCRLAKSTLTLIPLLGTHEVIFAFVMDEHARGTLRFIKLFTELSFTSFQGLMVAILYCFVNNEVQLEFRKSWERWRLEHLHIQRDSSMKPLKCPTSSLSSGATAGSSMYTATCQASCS
Test: cAMP production (HTRF) in CHO cells expressing human GLP-1 receptor
Format: cell-based
Conditions: % GLP-1R activity relative to GLP-1 / % GlucR activity relative to glucagon

Molecule	% Relative Potency Ratio (Table 8)	also measured
CC[C@H](C)[C@H](NC(=O)[C@H](Cc1c[nH]c2ccccc12)NC(=O)[C@H](CCCCNC(=O)COCCOCCNC(=O)COCCOCCNC(=O)CC[C@H](NC(=O)CCCCCCCCCCCCCCCCCCC(=O)O)C(=O)O)NC(=O)[C@@H](NC(=O)[C@H](Cc1ccccc1)NC(=O)[C@H](CC(=O)O)NC(=O)[C@H](CCC(N)=O)NC(=O)[C@H](C)NC(=O)[C@H](C)NC(=O)[C@H](CCCNC(=N)N)NC(=O)[C@H](CO)NC(=O)[C@H](CC(=O)O)NC(=O)[C@H](CC(C)C)NC(=O)[C@](C)(Cc1ccccc1)NC(=O)[C@H](CCCCN)NC(=O)[C@H](CO)NC(=O)[C@@H](NC(=O)[C@H](CC(=O)O)NC(=O)[C@H](CO)NC(=O)[C@@H](NC(=O)[C@](C)(Cc1ccccc1)NC(=O)[C@H](CO)NC(=O)CNC(=O)[C@H](Cc1c[nH]cn1)NC(=O)C(C)(C)NC(=O)[C@@H](N)Cc1c[nH]cn1)[C@@H](C)O)C(C)C)C(C)C)C(=O)N[C@@H](C)C(=O)N[C@@H](CC(N)=O)C(=O)N[C@H](C(N)=O)[C@@H](C)O [Peptide 367] (H-H[Aib]HGS[αMeF]TSDVSK[αMeF]LDSRAAQDFVK([AEEA-AEEA-γGlu-C20 diacid])WIANT-NH2; N-terminus assumed)	1.0	
CC(C)C[C@H](NC(=O)[C@H](Cc1c[nH]c2ccccc12)NC(=O)[C@H](CCC(N)=O)NC(=O)[C@@H](NC(=O)[C@H](Cc1ccccc1)NC(=O)[C@H](CC(=O)O)NC(=O)[C@H](CCCNC(=N)N)NC(=O)[C@H](C)NC(=O)[C@H](CCCNC(=N)N)NC(=O)[C@H](CCCCNC(=O)COCCOCCNC(=O)COCCOCCNC(=O)CC[C@H](NC(=O)CCCCCCCCCCCCCCCCC(=O)O)C(=O)O)NC(=O)[C@@H](NC(=O)[C@H](CCC(=O)O)NC(=O)[C@H](CC(C)C)NC(=O)[C@](C)(Cc1ccccc1)NC(=O)[C@H](CCCCN)NC(=O)[C@H](CO)NC(=O)[C@@H](NC(=O)[C@H](CC(=O)O)NC(=O)[C@H](CO)NC(=O)[C@@H](NC(=O)[C@H](Cc1ccccc1)NC(=O)[C@@H](NC(=O)CNC(=O)[C@H](CCC(N)=O)NC(=O)C(C)(C)NC(=O)[C@@H](N)Cc1c[nH]cn1)[C@@H](C)O)[C@@H](C)O)C(C)C)[C@@H](C)O)C(C)C)C(=O)N[C@@H](CC(C)C)C(=O)N[C@@H](CCC(=O)O)C(=O)NC(C)(C)C(=O)NCC(=O)O [Peptide 445] (H-H[Aib]QGTFTSDVSK[αMeF]LETK([AEEA-AEEA-γGlu-C18 diacid])RARDFVQWLLE[Aib]G-OH; N-terminus assumed)		% Relative Potency Ratio (Table 6): 41.0
CC[C@H](C)[C@H](NC(=O)C(C)(C)NC(=O)[C@H](CCCCNC(=O)COCCOCCNC(=O)COCCOCCNC(=O)CC[C@H](NC(=O)CCCCCCCCCCCCCCCCC(=O)O)C(=O)O)NC(=O)[C@@H](NC(=O)[C@](C)(Cc1ccccc1)NC(=O)[C@H](CC(=O)O)NC(=O)[C@H](CCC(N)=O)NC(=O)[C@H](C)NC(=O)[C@H](C)NC(=O)[C@H](CCC(N)=O)NC(=O)[C@H](CO)NC(=O)[C@H](CC(=O)O)NC(=O)[C@H](CC(C)C)NC(=O)[C@](C)(Cc1ccccc1)NC(=O)[C@H](CCCCN)NC(=O)[C@H](CO)NC(=O)[C@@H](NC(=O)[C@H](CC(=O)O)NC(=O)[C@H](CO)NC(=O)[C@@H](NC(=O)[C@](C)(Cc1ccccc1)NC(=O)[C@H](CO)NC(=O)CNC(=O)[C@H](Cc1c[nH]cn1)NC(=O)C(C)(C)NC(=O)[C@@H](N)Cc1c[nH]cn1)[C@@H](C)O)C(C)C)C(C)C)C(=O)N[C@@H](C)C(=O)N[C@@H](CC(N)=O)C(=O)N[C@H](C(N)=O)[C@@H](C)O [Peptide 383] (H-H[Aib]HGS[αMeF]TSDVSK[αMeF]LDSQAAQD[αMeF]VK([AEEA-AEEA-γGlu-C18 diacid])[Aib]IANT-NH2; N-terminus assumed)	2.3	
CC[C@H](C)[C@H](NC(=O)[C@H](CO)NC(=O)[C@H](CCCCNC(=O)COCCOCCNC(=O)COCCOCCNC(=O)CC[C@H](NC(=O)CC[C@H](NC(=O)CCCCCCCCCCCCCCCCC(=O)O)C(=O)O)C(=O)O)NC(=O)[C@@H](NC(=O)[C@](C)(Cc1ccccc1)NC(=O)[C@H](CC(=O)O)NC(=O)[C@H](CCC(N)=O)NC(=O)[C@H](C)NC(=O)[C@H](C)NC(=O)[C@H](CCCNC(=N)N)NC(=O)[C@H](CO)NC(=O)[C@H](CC(=O)O)NC(=O)[C@H](CC(C)C)NC(=O)[C@](C)(Cc1ccccc1)NC(=O)[C@H](CCCCN)NC(=O)[C@H](CO)NC(=O)[C@@H](NC(=O)[C@H](CC(=O)O)NC(=O)[C@H](CO)NC(=O)[C@@H](NC(=O)[C@](C)(Cc1ccccc1)NC(=O)[C@H](CO)NC(=O)CNC(=O)[C@H](Cc1c[nH]cn1)NC(=O)C(C)(C)NC(=O)[C@@H](N)Cc1c[nH]cn1)[C@@H](C)O)C(C)C)C(C)C)C(=O)N[C@@H](C)C(=O)N[C@@H](CC(N)=O)C(=O)N[C@H](C(N)=O)[C@@H](C)O [Peptide 378] (H-H[Aib]HGS[αMeF]TSDVSK[αMeF]LDSRAAQD[αMeF]VK([AEEA-AEEA-γGlu-γGlu-C18 diacid])SIANT-NH2; N-terminus assumed)	2.0	
HSQGS(αMePhe)TSDVSKK((PEG)2-(PEG)2-γE-VE-Palmitoyl)13LDS(B-dimethylArg)AAQD(aMePhe)VE(Aib)LANT-amide [Peptide 400]		% Relative Potency Ratio (Table 10): 16.7
CC[C@H](C)[C@H](NC(=O)[C@H](CO)NC(=O)[C@H](CCCCNC(=O)COCCOCCNC(=O)COCCOCCNC(=O)CC[C@H](NC(=O)CCCCCCCCCCCCCCCCC(=O)O)C(=O)O)NC(=O)[C@@H](NC(=O)[C@](C)(Cc1ccccc1)NC(=O)[C@H](CC(=O)O)NC(=O)[C@H](CCC(N)=O)NC(=O)[C@H](C)NC(=O)[C@H](C)NC(=O)[C@H](CCCNC(=N)N)NC(=O)[C@H](CO)NC(=O)[C@H](CC(=O)O)NC(=O)[C@H](CC(C)C)NC(=O)[C@](C)(Cc1ccccc1)NC(=O)[C@H](CCCCN)NC(=O)[C@H](CO)NC(=O)[C@@H](NC(=O)[C@H](CC(=O)O)NC(=O)[C@H](CO)NC(=O)[C@@H](NC(=O)[C@](C)(Cc1ccccc1)NC(=O)[C@H](CO)NC(=O)CNC(=O)[C@H](Cc1c[nH]cn1)NC(=O)C(C)(C)NC(=O)[C@@H](N)Cc1c[nH]cn1)[C@@H](C)O)C(C)C)C(C)C)C(=O)N[C@@H](C)C(=O)N[C@@H](CC(N)=O)C(=O)N[C@H](C(N)=O)[C@@H](C)O [Peptide 379] (H-H[Aib]HGS[αMeF]TSDVSK[αMeF]LDSRAAQD[αMeF]VK([AEEA-AEEA-γGlu-C18 diacid])SIANT-NH2)	2.4	
CC[C@H](C)[C@H](NC(=O)[C@H](Cc1c[nH]c2ccccc12)NC(=O)[C@H](CCCCNC(=O)COCCOCCNC(=O)COCCOCCNC(=O)CC[C@H](NC(=O)CC[C@H](NC(=O)CCCCCCCCCCCCCCCCCCC(=O)O)C(=O)O)C(=O)O)NC(=O)[C@@H](NC(=O)[C@H](Cc1ccccc1)NC(=O)[C@H](CC(=O)O)NC(=O)[C@H](CCC(N)=O)NC(=O)[C@H](C)NC(=O)[C@H](C)NC(=O)[C@H](CCCNC(=N)N)NC(=O)[C@H](CO)NC(=O)[C@H](CC(=O)O)NC(=O)[C@H](CC(C)C)NC(=O)[C@](C)(Cc1ccccc1)NC(=O)[C@H](CCCCN)NC(=O)[C@H](CO)NC(=O)[C@@H](NC(=O)[C@H](CC(=O)O)NC(=O)[C@H](CO)NC(=O)[C@@H](NC(=O)[C@](C)(Cc1ccccc1)NC(=O)[C@H](CO)NC(=O)CNC(=O)[C@H](Cc1c[nH]cn1)NC(=O)C(C)(C)NC(=O)[C@@H](N)Cc1c[nH]cn1)[C@@H](C)O)C(C)C)C(C)C)C(=O)N[C@@H](C)C(=O)N[C@@H](CC(N)=O)C(=O)N[C@H](C(N)=O)[C@@H](C)O [Peptide 377] (H-H[Aib]HGS[αMeF]TSDVSK[αMeF]LDSRAAQDFVK([AEEA-AEEA-γGlu-γGlu-C20 diacid])WIANT-NH2)	2.5	
HSQGS(αMePhe)TSDK((PEG)2-(PEG)2-γE-γE-Stearoyl)10SK(Dip)LDS(ß-dimethylArg)AAQD(αMePhe)VE(Aib)LANT-amide [Peptide 393]		% Relative Potency Ratio (Table 9): 9.3
CC[C@H](C)[C@H](NC(=O)C(C)(C)NC(=O)[C@H](CCCCNC(=O)COCCOCCNC(=O)COCCOCCNC(=O)CC[C@H](NC(=O)CCCCCCCCCCCCCCCCCCC(=O)O)C(=O)O)NC(=O)[C@@H](NC(=O)[C@H](Cc1ccccc1)NC(=O)[C@H](CC(=O)O)NC(=O)[C@H](CCC(N)=O)NC(=O)[C@H](C)NC(=O)[C@H](C)NC(=O)[C@H](CCCNC(=N)N)NC(=O)[C@H](CO)NC(=O)[C@H](CC(=O)O)NC(=O)[C@H](CC(C)C)NC(=O)[C@](C)(Cc1ccccc1)NC(=O)[C@H](CCCCN)NC(=O)[C@H](CO)NC(=O)[C@@H](NC(=O)[C@H](CC(=O)O)NC(=O)[C@H](CO)NC(=O)[C@@H](NC(=O)[C@](C)(Cc1ccccc1)NC(=O)[C@H](CO)NC(=O)CNC(=O)[C@H](Cc1c[nH]cn1)NC(=O)C(C)(C)NC(=O)[C@@H](N)Cc1c[nH]cn1)[C@@H](C)O)C(C)C)C(C)C)C(=O)N[C@@H](C)C(=O)N[C@@H](CC(N)=O)C(=O)N[C@H](C(N)=O)[C@@H](C)O [Peptide 369] (H-H[Aib]HGS[αMeF]TSDVSK[αMeF]LDSRAAQDFVK([AEEA-AEEA-γGlu-C20 diacid])[Aib]IANT-NH2)	3.8	
CC[C@H](C)[C@H](NC(=O)[C@H](Cc1c[nH]c2ccccc12)NC(=O)[C@H](CCCCNC(=O)CCOCCOCCNC(=O)CCOCCOCCNC(=O)CC[C@H](NC(=O)CC[C@H](NC(=O)CCCCCCCCCCCCCCCCC(=O)O)C(=O)O)C(=O)O)NC(=O)[C@@H](NC(=O)[C@H](Cc1ccccc1)NC(=O)[C@H](CC(=O)O)NC(=O)[C@H](CCC(N)=O)NC(=O)[C@H](C)NC(=O)[C@H](C)NC(=O)[C@H](CCC(N)=O)NC(=O)[C@H](CO)NC(=O)[C@H](CC(=O)O)NC(=O)[C@H](CC(C)C)NC(=O)[C@](C)(Cc1ccccc1)NC(=O)[C@H](CCCCN)NC(=O)[C@H](CO)NC(=O)[C@@H](NC(=O)[C@H](CC(=O)O)NC(=O)[C@H](CO)NC(=O)[C@@H](NC(=O)[C@](C)(Cc1ccccc1)NC(=O)[C@H](CO)NC(=O)CNC(=O)[C@H](Cc1c[nH]cn1)NC(=O)C(C)(C)NC(=O)[C@@H](N)Cc1c[nH]cn1)[C@@H](C)O)C(C)C)C(C)C)C(=O)N[C@@H](C)C(=O)N[C@@H](CC(N)=O)C(=O)N[C@H](C(N)=O)[C@@H](C)O [Peptide 352] (H-H[Aib]HGS[αMeF]TSDVSK[αMeF]LDSQAAQDFVK([PEG2-PEG2-γGlu-γGlu-C18 diacid])WIANT-NH2)	1.4	

From patent publication US12630600B2 (MEDIMMUNE LIMITED, priority 2022, dated 2026)
